Laboratory results: PMC11263391, “Molecular insights into degron recognition by CRL5^ASB7 ubiquitin ligase” (Nature Communications, 2024)
Where two headings read alike, the source gives them in different places. Residues, ends and D or L forms follow the SMILES beside them.

Molecular target: T1, ASB7-Elongin B/C (Homo sapiens, UniProt Q9H672)
T1 construct: The human ASB7 (residues 11–318) was amplified via PCR; His8-SUMO (pET28-MKH8SUMO) (N, cleaved yes); made in house; host or cells: Escherichia coli BL21 (DE3)
Test: ITC of degron peptides with wild-type ASB7-Elongin B/C
Type: binding
Settings: for ASB7 binding ability of substituted peptide, in words: wild-type ASB7, compared with native LZTS1-degron; for -T∆S / ∆G / ∆H: wild-type ASB7-Elongin B/C; for ∆H: mean ± SD of three repeats
Method: The human ASB7 (residues 11-318) was amplified via PCR from a human cDNA library and seamlessly cloned into the pET28-MKH8SUMO vector (Addgene plasmid #79526). […] ITC assays were performed using a MicroCal PEAQ-ITC instrument (Malvern Panalytical) at 16 °C. […] All protein and peptide stocks were prepared in an ITC buffer (20 mM Tris-HCl pH 7.5, and 150 mM NaCl) and subsequently diluted to the desired concentrations (39-156 μM for ASB7 protein and 0.8-4 mM for the peptides, respectively). In each experiment, 1.5 μL of peptide was titrated into the ASB7 complex solution with 15 injections. The injections were spaced at 90 seconds with a reference power of 15 μcal/s. The ITC data were processed using MicroCal PEAQ-ITC Analysis software.

[1] = ITC, MicroCal PEAQ-ITC, 16 °C, 20 mM Tris-HCl pH 7.5, 150 mM NaCl, peptide (0.8–4 mM) titrated into wild-type ASB7-Elongin B/C (39–156 μM), 15 injections, mean ± SD of three independent repeats, read-out: KD
[2] = ITC, 16 °C, 20 mM Tris-HCl pH 7.5, 150 mM NaCl

T1 sequence (Q9H672 11-318): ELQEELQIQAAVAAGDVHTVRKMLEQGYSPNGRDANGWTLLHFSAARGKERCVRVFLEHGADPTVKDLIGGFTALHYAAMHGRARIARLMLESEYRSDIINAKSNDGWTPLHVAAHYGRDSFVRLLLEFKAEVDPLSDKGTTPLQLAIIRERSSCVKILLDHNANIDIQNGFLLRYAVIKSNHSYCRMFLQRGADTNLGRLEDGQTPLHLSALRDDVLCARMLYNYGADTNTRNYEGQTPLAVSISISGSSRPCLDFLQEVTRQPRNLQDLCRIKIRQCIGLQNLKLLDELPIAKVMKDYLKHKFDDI
T1 sequence (Q15370 1-104 partner limits assumed): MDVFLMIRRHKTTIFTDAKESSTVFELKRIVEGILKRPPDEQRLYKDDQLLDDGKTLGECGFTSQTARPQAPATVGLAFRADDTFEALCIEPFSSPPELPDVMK
T1 sequence (Q15369 17-112 partner limits assumed): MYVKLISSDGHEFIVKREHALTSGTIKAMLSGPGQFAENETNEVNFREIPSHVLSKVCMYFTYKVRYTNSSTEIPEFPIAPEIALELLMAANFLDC

CSCC[C@H](NC(=O)[C@H](CC(C)C)NC(=O)[C@H](CO)NC(=O)[C@H](CCC(=O)O)NC(=O)[C@H](CC(C)C)NC(=O)[C@@H](N)CCC(=O)O)C(=O)N[C@@H](CCCCN)C(=O)N[C@@H](CCC(=O)O)C(=O)N[C@@H](CCC(N)=O)C(=O)O (H-ELESLMKEQ-OH; N-terminus and C-terminus assumed) showed a Kd [1] greater than 30 µM.

CSCC[C@H](NC(=O)[C@H](CC(C)C)NC(=O)[C@H](CO)NC(=O)[C@H](CCC(=O)O)NC(=O)[C@H](CC(C)C)NC(=O)[C@@H](N)CCC(=O)O)C(=O)N[C@@H](CCCCN)C(=O)N[C@@H](CCC(=O)O)C(=O)N[C@@H](CCC(N)=O)C(=O)N[C@@H](CC(=O)O)C(=O)N[C@@H](CC(C)C)C(=O)N[C@@H](CC(C)C)C(=O)N[C@@H](CCC(=O)O)C(=O)O (H-ELESLMKEQDLLE-OH; N-terminus and C-terminus assumed) was tested, and the Kd [1] was greater than 30 µM.

With CSCC[C@H](NC(=O)[C@H](CC(C)C)NC(=O)[C@H](CO)NC(=O)[C@H](CCC(=O)O)NC(=O)[C@H](CC(C)C)NC(=O)[C@@H](N)CCC(=O)O)C(=O)N[C@@H](CCCCN)C(=O)N[C@@H](CCC(=O)O)C(=O)N[C@@H](CCC(N)=O)C(=O)N[C@@H](CC(=O)O)C(=O)N[C@@H](CC(C)C)C(=O)N[C@@H](CC(C)C)C(=O)N[C@@H](CCC(=O)O)C(=O)N[C@H](C(=O)N[C@@H](CCCCN)C(=O)N[C@@H](CC(C)C)C(=O)N[C@@H](CCCNC(=N)N)C(=O)N[C@@H](CO)C(=O)N[C@@H](Cc1ccc(O)cc1)C(=O)N[C@@H](CCC(=O)O)C(=O)N[C@@H](CCCNC(=N)N)C(=O)O)[C@@H](C)O (H-ELESLMKEQDLLETKLRSYER-OH) the Kd [1] was 0.7 ± 0.31 µM.

With CSCC[C@H](NC(=O)[C@H](CC(C)C)NC(=O)[C@H](CO)NC(=O)[C@H](CCC(=O)O)NC(=O)[C@H](CC(C)C)NC(=O)[C@H](CCC(=O)O)NC(=O)[C@H](CCC(N)=O)NC(=O)[C@@H](N)CCCNC(=N)N)C(=O)N[C@@H](CCCCN)C(=O)N[C@@H](CCCNC(=N)N)C(=O)N[C@@H](CCC(N)=O)C(=O)N[C@@H](CC(=O)O)C(=O)N[C@@H](CC(C)C)C(=O)N[C@@H](CC(C)C)C(=O)N[C@@H](CCC(=O)O)C(=O)N[C@H](C(=O)N[C@@H](CCCCN)C(=O)N[C@@H](CC(C)C)C(=O)N[C@@H](CCCNC(=N)N)C(=O)N[C@@H](CO)C(=O)N[C@@H](Cc1ccc(O)cc1)C(=O)N[C@@H](CCC(=O)O)C(=O)N[C@@H](CCCNC(=N)N)C(=O)O)[C@@H](C)O [E8R] (H-RQELESLMKRQDLLETKLRSYER-OH; N-terminus and C-terminus assumed) the Kd [1] was greater than 30 µM and the “ASB7 binding ability of substituted peptide, in words” value (“ASB7 binding ability” below) (ITC) was “almost complete loss”.

CSCC[C@H](NC(=O)[C@H](CC(C)C)NC(=O)[C@H](CO)NC(=O)[C@H](CCC(=O)O)NC(=O)[C@H](CC(C)C)NC(=O)[C@@H](N)CCC(=O)O)C(=O)O [ELESLM] (H-ELESLM-OH) gave a Kd greater than 30 µM.

In the case of CSCC[C@H](NC(=O)[C@H](CCCNC(=N)N)NC(=O)[C@H](CO)NC(=O)[C@H](CCC(=O)O)NC(=O)[C@H](CC(C)C)NC(=O)[C@H](CCC(=O)O)NC(=O)[C@H](CCC(N)=O)NC(=O)[C@@H](N)CCCNC(=N)N)C(=O)N[C@@H](CCCCN)C(=O)N[C@@H](CCC(=O)O)C(=O)N[C@@H](CCC(N)=O)C(=O)N[C@@H](CC(=O)O)C(=O)N[C@@H](CC(C)C)C(=O)N[C@@H](CC(C)C)C(=O)N[C@@H](CCC(=O)O)C(=O)N[C@H](C(=O)N[C@@H](CCCCN)C(=O)N[C@@H](CC(C)C)C(=O)N[C@@H](CCCNC(=N)N)C(=O)N[C@@H](CO)C(=O)N[C@@H](Cc1ccc(O)cc1)C(=O)N[C@@H](CCC(=O)O)C(=O)N[C@@H](CCCNC(=N)N)C(=O)O)[C@@H](C)O [L5R] (H-RQELESRMKEQDLLETKLRSYER-OH; N-terminus and C-terminus assumed), the Kd [1] is reported as greater than 30 µM and the “ASB7 binding ability” value (ITC) is reported as “almost complete loss”.

In the case of CSCC[C@H](NC(=O)[C@H](CC(C)C)NC(=O)[C@H](CO)NC(=O)[C@H](CCC(=O)O)NC(=O)[C@H](CC(C)C)NC(=O)[C@H](CCC(=O)O)NC(=O)[C@H](CCC(N)=O)NC(=O)[C@@H](N)CCCNC(=N)N)C(=O)N[C@@H](CCCCN)C(=O)N[C@@H](CCC(=O)O)C(=O)N[C@@H](CCC(N)=O)C(=O)N[C@@H](CC(=O)O)C(=O)N[C@@H](CC(C)C)C(=O)N[C@@H](CCCNC(=N)N)C(=O)N[C@@H](CCC(=O)O)C(=O)N[C@H](C(=O)N[C@@H](CCCCN)C(=O)N[C@@H](CC(C)C)C(=O)N[C@@H](CCCNC(=N)N)C(=O)N[C@@H](CO)C(=O)N[C@@H](Cc1ccc(O)cc1)C(=O)N[C@@H](CCC(=O)O)C(=O)N[C@@H](CCCNC(=N)N)C(=O)O)[C@@H](C)O [L12R] (H-RQELESLMKEQDLRETKLRSYER-OH; N-terminus and C-terminus assumed), the Kd [1] is reported as greater than 30 µM and the “ASB7 binding ability” value (ITC) is reported as “almost complete loss”.

In the case of CSCC[C@H](NC(=O)[C@H](CC(C)C)NC(=O)[C@H](CO)NC(=O)[C@H](CCC(=O)O)NC(=O)[C@H](CC(C)C)NC(=O)[C@H](CCC(=O)O)NC(=O)[C@H](CCC(N)=O)NC(=O)[C@@H](N)CCCNC(=N)N)C(=O)N[C@@H](CCCCN)C(=O)N[C@@H](CCC(=O)O)C(=O)N[C@@H](CCC(N)=O)C(=O)N[C@@H](CC(=O)O)C(=O)N[C@@H](CC(C)C)C(=O)N[C@@H](CC(C)C)C(=O)N[C@@H](CCC(=O)O)C(=O)N[C@H](C(=O)N[C@@H](CCCCN)C(=O)N[C@@H](CCCNC(=N)N)C(=O)N[C@@H](CCCNC(=N)N)C(=O)N[C@@H](CO)C(=O)N[C@@H](Cc1ccc(O)cc1)C(=O)N[C@@H](CCC(=O)O)C(=O)N[C@@H](CCCNC(=N)N)C(=O)O)[C@@H](C)O [L16R] (H-RQELESLMKEQDLLETKRRSYER-OH; N-terminus and C-terminus assumed), the Kd [1] is reported as greater than 30 µM and the “ASB7 binding ability” value (ITC) is reported as “almost complete loss”.

For CSCC[C@H](NC(=O)[C@H](CC(C)C)NC(=O)[C@H](CO)NC(=O)[C@H](CCC(=O)O)NC(=O)[C@H](CC(C)C)NC(=O)[C@H](CCC(=O)O)NC(=O)[C@H](CCC(N)=O)NC(=O)[C@@H](N)CCCNC(=N)N)C(=O)N[C@@H](CCCCN)C(=O)N[C@@H](CCC(=O)O)C(=O)N[C@@H](CCC(N)=O)C(=O)N[C@@H](CC(=O)O)C(=O)N[C@@H](CC(C)C)C(=O)N[C@@H](CC(C)C)C(=O)N[C@@H](CCC(=O)O)C(=O)N[C@H](C(=O)N[C@@H](CCCCN)C(=O)N[C@@H](CC(C)C)C(=O)N[C@@H](CCCNC(=N)N)C(=O)N[C@@H](CO)C(=O)N[C@@H](CCCNC(=N)N)C(=O)N[C@@H](CCC(=O)O)C(=O)N[C@@H](CCCNC(=N)N)C(=O)O)[C@@H](C)O [Y19R] (H-RQELESLMKEQDLLETKLRSRER-OH), the Kd [1] was 0.7 ± 0.05 µM.

With “EIGELKAVMEGIKMEHQLELGN [CLIP2-degron, synthetic degron peptide derived from CLIP2]” the “-T∆S” value [2] was 2.57 kcal/mol, the “∆G” value [2] was -8.23 kcal/mol and the “∆H” value [2] was -10.8 ± 0.25 kcal/mol.

For “ELEKAKQECQDLKGKLEKCCRH [CEP152-degron, synthetic degron peptide derived from CEP152]”, the “-T∆S” value [2] was -4.79 kcal/mol, the “∆G” value [2] was -6.59 kcal/mol and the “∆H” value [2] was -1.8 ± 0.09 kcal/mol. It also gave a Kd [1] of 3.8 µM.
